Test results taken from patent US8450308B2 (Vitae Pharmaceuticals, Inc., priority 2008, dated 2013).

Biological target: T1, truncated human beta-secretase (residues 1-458, His6-tagged at the C-terminus) (Homo sapiens, UniProt P56817)
T1 construct: truncated human beta-secretase (residues 1-458, His6-tagged at the C-terminus); His6 (C); made in house; host or cells: insect cells D. melanogaster S2 (baculovirus expression system (so in the source))
Assay: BACE fluorescence quench assay
Assay type: biochemical
Settings: in vitro enzyme activity, BACE fluorescence assay, pH 4.5; read-out: IC50

T1 sequence (P56817 22-458): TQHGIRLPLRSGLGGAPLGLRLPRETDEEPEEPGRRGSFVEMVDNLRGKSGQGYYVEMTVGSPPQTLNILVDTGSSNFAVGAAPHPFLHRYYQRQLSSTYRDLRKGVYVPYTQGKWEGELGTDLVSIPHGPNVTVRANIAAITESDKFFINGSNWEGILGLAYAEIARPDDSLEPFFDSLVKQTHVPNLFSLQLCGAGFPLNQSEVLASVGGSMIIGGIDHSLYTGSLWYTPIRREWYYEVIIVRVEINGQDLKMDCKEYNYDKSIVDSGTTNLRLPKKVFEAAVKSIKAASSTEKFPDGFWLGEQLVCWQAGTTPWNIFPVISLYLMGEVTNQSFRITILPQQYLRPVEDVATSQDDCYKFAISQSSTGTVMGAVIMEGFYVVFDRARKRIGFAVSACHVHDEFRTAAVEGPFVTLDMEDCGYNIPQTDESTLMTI

Row | SMILES | IC50
1 | CN1C(=O)[C@@]2(C[C@@]3(CCCOC3)Oc3ccc(-c4cc(C#N)cc(C#N)c4)cc32)N=C1N [Compound 309] | 100 to 500 nM
2 | CN1C(=O)[C@@]2(C[C@@]3(CCCOC3)Oc3ccc(-c4ccc(F)c(Cl)c4)cc32)N=C1N [Compound 310] | 100 to 500 nM
3 | CN1OC2(C[C@H]([C@H]3CCOC(C)(C)C3)Oc3ccc(-c4cccc(C#N)c4F)cc32)N=C1N (stereo partly drawn) [Compound 312] | 100 to 500 nM
4 | CN1OC2(CC3(Cc4ccccc4C3)Oc3ccc(-c4cccc(C#N)c4)cc32)N=C1N (stereo not drawn) [Compound 315] | 100 to 500 nM
5 | CN1C(=O)C2(C[C@]3(CCCOC3)Oc3ccc(-c4cccc(Br)c4)cc32)N=C1N (stereo partly drawn) [Compound 318] | 100 to 500 nM
6 | CC1CC(C2CC3(N=C(N)N(C)O3)c3cc(-c4cccc(C#N)c4)ccc3O2)CC(C)O1 (stereo not drawn) [Compound 319] | 100 to 500 nM
7 | COc1ccc(OC)c(-c2ccc3c(c2)[C@]2(C[C@@]4(CCCOC4)O3)N=C(N)N(C)C2=O)c1 [Compound 321] | 100 to 500 nM
8 | CN1C(=O)[C@@]2(C[C@@]3(CCCOC3)Oc3ccc(-c4cccc(C(F)(F)F)c4)cc32)N=C1N [Compound 325] | 100 to 500 nM
9 | CN1OC2(CC(C3CC(C)(C)OC(C)(C)C3)Oc3ccc(-c4cccc(C#N)c4)cc32)N=C1N (stereo not drawn) [Compound 327] | 100 to 500 nM
10 | COc1cc(F)cc(-c2ccc3c(c2)[C@]2(C[C@@]4(CCCOC4)O3)N=C(N)N(C)C2=O)c1 [Compound 328] | 100 to 500 nM
11 | CN1OC2(CC3(CCCN(c4ncccn4)C3)Oc3ccc(-c4cccc(C#N)c4)cc32)N=C1N (stereo not drawn) [Compound 329] | 100 to 500 nM
12 | CN1C(=O)C2(CC3(CCCOC3)Oc3ccc(-c4cc(F)ccc4F)cc32)N=C1N (stereo not drawn) [Compound 332] | 100 to 500 nM
13 | CN1OC2(CC(C3CCCOC3)Oc3ccc(-c4ccc(F)c(C#N)c4F)cc32)N=C1N (stereo not drawn) [Compound 334] | 100 to 500 nM
14 | CN1C(=O)[C@@]2(C[C@@]3(CCCOC3)Oc3ccc(-c4cccc(Br)c4)cc32)N=C1N [Compound 336] | 100 to 500 nM
15 | CN1OC2(CC(C3CCOC(C)(C)C3)Oc3ccc(-c4cc(F)cc(F)c4)cc32)N=C1N (stereo not drawn) [Compound 339] | 100 to 500 nM
16 | Cc1cc(C)cc(-c2ccc3c(c2)[C@]2(C[C@@]4(CCCOC4)O3)N=C(N)N(C)C2=O)c1 [Compound 340] | 100 to 500 nM
17 | CN1OC2(C[C@H]([C@H]3CCOC(C)(C)C3)Oc3ccc(-c4cc(F)ccc4F)cc32)N=C1N (stereo partly drawn) [Compound 341] | 100 to 500 nM
18 | CCOc1ccc(Cl)cc1-c1ccc2c(c1)[C@]1(C[C@]3(CCCOC3)O2)N=C(N)N(C)C1=O [Compound 342] | 100 to 500 nM
19 | CN1OC2(CC(C3CCOC(C)(C)C3)Oc3ccc(-c4cccc(F)c4)cc32)N=C1N (stereo not drawn) [Compound 343] | 100 to 500 nM
20 | CN1OC2(CC(C3CCOC(C)(C)C3)Oc3ccc(-c4cc(F)cc(F)c4F)cc32)N=C1N (stereo not drawn) [Compound 344] | 100 to 500 nM
21 | CN1C(=O)C2(CC3(CCCOC3)Oc3ccc(-c4cc(F)cc(F)c4F)cc32)N=C1N (stereo not drawn) [Compound 346] | 500 to 1000 nM
22 | CN1C(=O)C2(CC3(CCCOC3)Oc3ccc(-c4cccc(F)c4)cc32)N=C1N (stereo not drawn) [Compound 347] | 500 to 1000 nM
23 | CN1OC2(CC(C3CCOCC3)Oc3ccc(-c4cc(Cl)cc(C#N)c4)cc32)N=C1N (stereo not drawn) [Compound 350] | 500 to 1000 nM

Row | SMILES | IC50
24 | CN1C(=O)C2(CC3(CCCOC3)Oc3ccc(-c4ccc(F)c(F)c4)cc32)N=C1N (stereo not drawn) [Compound 351] | 500 to 1000 nM
25 | CN1OC2(CC(C3CCOC(C)(C)C3)Oc3ccc(-c4cc(C#N)ccc4C(F)(F)F)cc32)N=C1N (stereo not drawn) [Compound 354] | 500 to 1000 nM
26 | CN1C(=O)[C@@]2(C[C@@]3(CCCOC3)Oc3ccc(-c4cc(F)cc(C#N)c4)cc32)N=C1N [Compound 356] | 500 to 1000 nM
27 | CN1C(=O)[C@@]2(C[C@@]3(CCCOC3)Oc3ccc(-c4cccc(OC(F)(F)F)c4)cc32)N=C1N [Compound 357] | 500 to 1000 nM
28 | CC(=O)c1cccc(-c2ccc3c(c2)[C@]2(C[C@]4(CCCOC4)O3)N=C(N)N(C)C2=O)c1 [Compound 358] | 500 to 1000 nM
29 | CN1C(=O)[C@@]2(C[C@@]3(CCCOC3)Oc3ccc(-c4cc(F)cc(F)c4F)cc32)N=C1N [Compound 359] | 500 to 1000 nM
30 | CN1OC2(CC(C3CCOC(C)(C)C3)Oc3ccc(-c4ccc5cn[nH]c5c4)cc32)N=C1N (stereo not drawn) [Compound 361] | 500 to 1000 nM
31 | CN1OC2(C[C@H]([C@@H]3CCOC(C)(C)C3)Oc3ccc(-c4ccc(F)c(F)c4)cc32)N=C1N (stereo partly drawn) [Compound 362] | 500 to 1000 nM
32 | Cc1cccc(-c2ccc3c(c2)C2(CC(C4CCOC(C)(C)C4)O3)N=C(N)N(C)O2)c1F (stereo not drawn) [Compound 363] | 500 to 1000 nM
33 | Cc1ccc(C)c(-c2ccc3c(c2)C2(CC4(CCCOC4)O3)N=C(N)N(C)C2=O)c1 (stereo not drawn) [Compound 364] | 500 to 1000 nM
34 | CN1OC2(C[C@H]([C@H]3CCOC(C)(C)C3)Oc3ccc(-c4ccc(F)c(F)c4)cc32)N=C1N (stereo partly drawn) [Compound 365] | 500 to 1000 nM
35 | Cc1ccc(C#N)cc1-c1ccc2c(c1)C1(CC3(CCCOC3)O2)N=C(N)N(C)C1=O (stereo not drawn) [Compound 368] | 500 to 1000 nM
36 | CN1OC2(C[C@H](C3CCOC(C)(C)C3)Oc3ccc(-c4ccc5cn[nH]c5c4)cc32)N=C1N (stereo partly drawn) [Compound 369] | 500 to 1000 nM
37 | CN1OC2(CC(C3CCOC(C)(C)C3)Oc3ccc(-c4csc(-n5ccnc5)n4)cc32)N=C1N (stereo not drawn) [Compound 370] | 500 to 1000 nM
38 | CC1CC[C@]2(CO1)C[C@]1(N=C(N)N(C)O1)c1cc(-c3cc(Cl)cc(Cl)c3)ccc1O2 (stereo partly drawn) [Compound 371] | 500 to 1000 nM
39 | CN1C(=O)C2(CC(C3CCOC(C)(C)C3)Oc3ccc(-c4cc(F)cc(F)c4)cc32)N=C1N (stereo not drawn) [Compound 372] | 500 to 1000 nM
40 | CN1O[C@]2(C[C@]3(CCCc4ccccc43)Oc3ccc(-c4cccc(C#N)c4)cc32)N=C1N [Compound 374] | 1000 to 5000 nM
41 | CN1OC2(CC3(CCC(OCc4ccccc4)CC3)Oc3ccc(-c4cccc(C#N)c4)cc32)N=C1N (stereo not drawn) [Compound 375] | 1000 to 5000 nM
42 | CN1C(=O)[C@@]2(C[C@]3(CCCOC3)Oc3ccc(-c4cc(CO)ccc4F)cc32)N=C1N [Compound 376] | 1000 to 5000 nM
43 | CC(C)=CC(CCO)C1CC2(N=C(N)N(C)O2)c2cc(-c3cc(F)cc(C#N)c3)ccc2O1 (stereo not drawn) [Compound 377] | 1000 to 5000 nM
44 | CCOc1ccc(Cl)cc1-c1ccc2c(c1)[C@]1(C[C@@]3(CCCOC3)O2)N=C(N)N(C)C1=O [Compound 378] | 1000 to 5000 nM
45 | CN1C(=O)[C@@]2(C[C@]3(CCCOC3)Oc3ccc(-c4cc(C#N)ccc4C(F)(F)F)cc32)N=C1N [Compound 380] | 1000 to 5000 nM
46 | CN1C(=O)C2(CC3(CCCc4ccccc4C3)Oc3ccc(Br)cc32)N=C1N (stereo not drawn) [Compound 381] | 1000 to 5000 nM

Row | SMILES | IC50
47 | CC(C)=CC(CCO)C1CC2(N=C(N)N(C)O2)c2cc(-c3cccc(C#N)c3)ccc2O1 (stereo not drawn) [Compound 382] | 1000 to 5000 nM
48 | CN1OC2(CC3(CCC(Oc4ccccc4)CC3)Oc3ccc(-c4cccc(C#N)c4)cc32)N=C1N (stereo not drawn) [Compound 383] | 1000 to 5000 nM
49 | CN1OC2(C[C@H]([C@@H]3CCOC(C)(C)C3)Oc3ccc(-c4cc(F)ccc4F)cc32)N=C1N (stereo partly drawn) [Compound 384] | 1000 to 5000 nM
50 | Cc1ccc(F)cc1-c1ccc2c(c1)[C@]1(C[C@@]3(CCCOC3)O2)N=C(N)N(C)C1=O [Compound 385] | 1000 to 5000 nM
51 | CCOC(=O)c1cccc(-c2ccc3c(c2)[C@]2(C[C@]4(CCCOC4)O3)N=C(N)N(C)C2=O)c1 [Compound 386] | 1000 to 5000 nM
52 | CC1CCC2(CO1)CC1(N=C(N)N(C)O1)c1cc(-c3cccc(C#N)c3)ccc1O2 (stereo not drawn) [Compound 387, 3-(2″H-3″-amino-2″-methyl-spiro(spiro(chroman-2,3′-[2,4,5,6-tetrahydro-6-methyl-pyran])-4,5″-[1,2,4]oxadiazole)-6-yl)benzonitrile] | 1000 to 5000 nM
53 | COC1CCC2(CC1)CC1(N=C(N)N(C)O1)c1cc(-c3cccc(C#N)c3)ccc1O2 (stereo not drawn) [Compound 388] | 1000 to 5000 nM
54 | Cc1cccc(-c2ccc3c(c2)[C@]2(C[C@]4(CCCOC4)O3)N=C(N)N(C)C2=O)c1C [Compound 389] | 1000 to 5000 nM
55 | CN1OC2(CC3(CCN(c4ccccc4)CC3)Oc3ccc(-c4cccc(C#N)c4)cc32)N=C1N (stereo not drawn) [Compound 390] | 1000 to 5000 nM
56 | CC(C)=CC(CCO)C1CC2(N=C(N)N(C)O2)c2cc(-c3cc(C#N)ccc3F)ccc2O1 (stereo not drawn) [Compound 391] | 1000 to 5000 nM
57 | CC(C)=CC(CCO)[C@@H]1C[C@@]2(N=C(N)N(C)O2)c2cc(-c3cc(F)cc(F)c3F)ccc2O1 (stereo partly drawn) [Compound 392] | 1000 to 5000 nM
58 | CN1OC2(CC(C3CCOC(C)(C)C3)Oc3ccc(-c4cccc(Cl)n4)cc32)N=C1N (stereo not drawn) [Compound 393] | 1000 to 5000 nM
59 | CN1OC2(C[C@]3(CCCC4CCCCC43)Oc3ccc(-c4cccc(C#N)c4)cc32)N=C1N (stereo partly drawn) [Compound 394] | 1000 to 5000 nM
60 | CN1C(=O)C2(CC3(CCCOC3)Oc3ccc(-c4cc(CO)ccc4F)cc32)N=C1N (stereo not drawn) [Compound 395] | 1000 to 5000 nM
61 | CN1OC2(CC3(CCOC(C)(C)C3)Oc3ccc(-c4cccc(C#N)c4)cc32)N=C1N (stereo not drawn) [Compound 396] | 1000 to 5000 nM
62 | CN1C(=O)C2(CC3(CCCOC3)Oc3ccc(-c4ccsc4)cc32)N=C1N (stereo not drawn) [Compound 397] | 1000 to 5000 nM
63 | CN1O[C@@]2(C[C@@H]([C@H]3CCCOC3)Oc3ccc(-c4cc(F)cc(F)c4)cc32)N=C1N [Compound 398] | 1000 to 5000 nM
64 | CN1OC2(N=C1N)c1ccccc1OCC2CCc1cccc(C#N)c1 (stereo not drawn) [Compound 399] | 1000 to 5000 nM
65 | CN1OC2(CC(C3CCOC(C)(C)C3)Oc3ccc(-c4cccc(-n5ccnc5)n4)cc32)N=C1N (stereo not drawn) [Compound 400] | 1000 to 5000 nM
66 | CC(C)=CC(CC(C)(C)O)C1CC2(N=C(N)N(C)O2)c2cc(-c3cccc(C#N)c3)ccc2O1 (stereo not drawn) [Compound 401] | 1000 to 5000 nM
67 | CC(C)=CC(CCO)C1CC2(N=C(N)N(C)O2)c2cc(-c3cc(F)cc(Cl)c3)ccc2O1 (stereo not drawn) [Compound 404] | 1000 to 5000 nM
68 | CSc1cccc(-c2ccc3c(c2)[C@]2(C[C@@]4(CCCOC4)O3)N=C(N)N(C)C2=O)c1 [Compound 405] | 1000 to 5000 nM
69 | CN1OC2(CC(C3CCOC(C)(C)C3)Oc3ccc(-c4cccc(C#N)n4)cc32)N=C1N (stereo not drawn) [Compound 406] | 1000 to 5000 nM
